Data from patent US20130303509A1, “NAMPT INHIBITORS” (AbbVie Inc., priority 2012, published 2013).

Test system: PC3 cells
Experiment: NAMPT Cell Proliferation Assay
Type: cell-based
Conditions: Homo sapiens, PC-3, 120 h, 5 days incubation, cell viability by Cell Titer Glo
Method in brief: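 Five-day CellTiter-Glo viability readout in PC3 cells grown in RPMI/10% heat-inactivated FBS. Compounds added after overnight attachment as a 10-fold dilution series, […]. Percent inhibition fitted to sigmoidal dose-response to derive IC50.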

| IC50 | Compound |
| --- | --- |
| 6.09 nM | CCCCCC(=O)N1CCC(c2ccc(NC(=O)[C@H]3CCN(c4cccnn4)C3)cc2)CC1 [Example 678, (3S)-N-[4-(1-hexanoylpiperidin-4-yl)phenyl]-1-(pyridazin-3-yl)pyrrolidine-3-carboxamide] |
| 2000 nM | Cc1ccc(N2CC[C@H](C(=O)Nc3ccc(OC4CCN(C(=O)C5CCCCC5)CC4)cc3)C2)nn1 [Example 839, (3S)—N-(4-{[1-(cyclohexylcarbonyl)piperidin-4-yl]oxy}-phenyl)-1-(6-methylpyridazin-3-yl)pyrrolidine-3-carboxamide] |
| 5.23 nM | O=C(Nc1ccc(C2CCN(C(=O)C3CCCC3)CC2)cc1)[C@H]1CCN(c2cccnn2)C1 [Example 660, (3S)-N-{4-[1-(cyclopentylcarbonyl)piperidin-4-yl]phenyl}-1-(pyridazin-3-yl)pyrrolidine-3-carboxamide] |
| 7.59 nM | O=C(Nc1ccc(C2CN(C(=O)c3ccccc3)C2)cc1)[C@H]1CCN(c2cccnn2)C1 [Example 788, (3S)-N-[4-(1-benzoylazetidin-3-yl)phenyl]-1-(pyridazin-3-yl)pyrrolidine-3-carboxamide] |
| 65 nM | Cn1nc(C2CC2)cc1-c1ccc(NC(=O)C2CN(c3cccnn3)C2)cc1 [Example 805, N-[4-(3-cyclopropyl-1-methyl-1H-pyrazol-5-yl)phenyl]-1-(pyridazin-3-yl)azetidine-3-carboxamide] |
| 1870 nM | O=C(Nc1ccc(S(=O)(=O)C2CCN(C(=O)C3CCCC3)CC2)cc1)C1CN(c2ccnnc2)C1 [Example 617, N-(4-{[1-(cyclopentylcarbonyl)piperidin-4-yl]sulfonyl}phenyl)-1-(pyridazin-4-yl)azetidine-3-carboxamide] |
| 84.8 nM | COCCOCC(=O)N1CCC(c2ccc(NC(=O)[C@H]3CCN(c4cccnn4)C3)cc2)CC1 [Example 722, (3S)-N-(4-{1-[(2-methoxyethoxy)acetyl]piperidin-4-yl}phenyl)-1-(pyridazin-3-yl)pyrrolidine-3-carboxamide] |
| 734 nM | CC(C)Cn1cc(-c2ncc(C(=O)N[C@H]3CCN(c4cccnn4)C3)s2)cn1 [Example 742, 2-[1-(2-methylpropyl)-1H-pyrazol-4-yl]-N-[(3S)-1-(pyridazin-3-yl)pyrrolidin-3-yl]-1,3-thiazole-5-carboxamide] |

Continued, compound first:

| Compound | IC50 |
| --- | --- |
| O=C(Nc1ccc(O[C@@H]2CCN(C(=O)C3CCC(F)(F)CC3)C2)cc1)C1CN(c2cccnn2)C1 [Example 524, N-[4-({(3R)-1-[(4,4-difluorocyclohexyl)carbonyl]pyrrolidin-3-yl}oxy)phenyl]-1-(pyridazin-3-yl)azetidine-3-carboxamide] | 5.73 nM |
| Cc1ccc(C(=O)N2CCC(c3ccc(NC(=O)C4CN(c5cccnc5)C4)cc3)CC2)s1 [Example 126, N-(4-{1-[(5-methylthiophen-2-yl)carbonyl]piperidin-4-yl}phenyl)-1-(pyridin-3-yl)azetidine-3-carboxamide] | 0.26 nM |
| COCC(=O)N1CC[C@@H](Oc2ccc(NC(=O)C3CN(c4cccnn4)C3)cc2)C1 [Example 510, N-(4-{[(3R)-1-(methoxyacetyl)pyrrolidin-3-yl]oxy}phenyl)-1-(pyridazin-3-yl)azetidine-3-carboxamide] | 66.4 nM |
| O=C(Nc1ccc(C2CCN(C(=O)c3cc(C(F)(F)F)ccc3F)CC2)cc1)C1CN(c2cccnn2)C1 [Example 394, N-(4-{1-[2-fluoro-5-(trifluoromethyl)benzoyl]piperidin-4-yl}phenyl)-1-(pyridazin-3-yl)azetidine-3-carboxamide] | 1.99 nM |
| CCOCCC(=O)N1CCC(Oc2ccc(NC(=O)C3CN(c4cccnc4)C3)cc2)CC1 [Example 39, N-(4-{[1-(3-ethoxypropanoyl)piperidin-4-yl]oxy}phenyl)-1-(pyridin-3-yl)azetidine-3-carboxamide] | 7.38 nM |
| O=C(Nc1ccc(C2CCN(C(=O)c3ccc(C(F)(F)F)cc3)CC2)cc1)C1CN(c2cccnn2)C1 [Example 355, 1-(pyridazin-3-yl)-N-(4-{1-[4-(trifluoromethyl)benzoyl]piperidin-4-yl}phenyl)azetidine-3-carboxamide] | 9.79 nM |
| O=C(Nc1ccc(O[C@@H]2CCN(C(=O)c3ccc(F)cc3)C2)cc1)C1CN(c2ccnnc2)C1 [Example 396, N-(4-{[(3R)-1-(4-fluorobenzoyl)pyrrolidin-3-yl]oxy}phenyl)-1-(pyridazin-4-yl)azetidine-3-carboxamide] | 68.5 nM |
| O=C(Nc1ccc(OC2CCN(C(=O)Cc3ccccc3F)CC2)cc1)C1CN(c2ccnnc2)C1 [Example 308, N-[4-({1-[(2-fluorophenyl)acetyl]piperidin-4-yl}oxy)phenyl]-1-(pyridazin-4-yl)azetidine-3-carboxamide] | 61.4 nM |
| O=C(Nc1ccc(C2CCN(C(=O)c3ccoc3)CC2)cc1)C1CN(c2cccnn2)C1 [Example 375, N-{4-[1-(furan-3-ylcarbonyl)piperidin-4-yl]phenyl}-1-(pyridazin-3-yl)azetidine-3-carboxamide] | 0.87 nM |
| O=C(Nc1ccc(OC2CCN(C(=O)C3CCCCC3)CC2)cc1)C1CN(c2cccnc2)C1 [Example 49, N-(4-{[1-(cyclohexylcarbonyl)piperidin-4-yl]oxy}phenyl)-1-(pyridin-3-yl)azetidine-3-carboxamide] | 6.96 nM |
| CC(C)(C(=O)N1CCC(c2ccc(NC(=O)C3CN(c4cccnc4)C3)cc2)CC1)N1CCNCC1 [Example 610, N-(4-{1-[2-methyl-2-(piperazin-1-yl)propanoyl]piperidin-4-yl}phenyl)-1-(pyridin-3-yl)azetidine-3-carboxamide] | 7.9 nM |
| O=C(Nc1ccc(O[C@@H]2CCN(C(=O)c3cscn3)C2)cc1)C1CN(c2cccnn2)C1 [Example 498, 1-(pyridazin-3-yl)-N-(4-{[(3R)-1-(1,3-thiazol-4-ylcarbonyl)pyrrolidin-3-yl]oxy}phenyl)azetidine-3-carboxamide] | 6.64 nM |
| O=C(Nc1ccc(S(=O)(=O)C2CCN(C(=O)C3(c4ccccc4)CC3)CC2)cc1)C1CN(c2cccnn2)C1 [Example 601, N-[4-({1-[(1-phenylcyclopropyl)carbonyl]piperidin-4-yl}sulfonyl)phenyl]-1-(pyridazin-3-yl)azetidine-3-carboxamide] | 96.8 nM |
| CCC(C)(C)C(=O)N1CC[C@@H](Oc2ccc(NC(=O)C3CN(c4ccnnc4)C3)cc2)C1 [Example 473, N-(4-{[(3R)-1-(2,2-dimethylbutanoyl)pyrrolidin-3-yl]oxy}phenyl)-1-(pyridazin-4-yl)azetidine-3-carboxamide] | 9.3 nM |
| Cc1ncccc1N1CC(C(=O)Nc2ccc(C3CCN(C(=O)CC4CCCC4)CC3)cc2)C1 [Example 162, N-{4-[1-(cyclopentylacetyl)piperidin-4-yl]phenyl}-1-(2-methylpyridin-3-yl)azetidine-3-carboxamide] | 225 nM |
| CC(C)C(=O)N1CCC(c2ccc(NC(=O)[C@H]3CCN(c4cccnn4)C3)cc2)CC1 [Example 310, (3S)—N-{4-[1-(2-methylpropanoyl)piperidin-4-yl]phenyl}-1-(pyridazin-3-yl)pyrrolidine-3-carboxamide] | 16.1 nM |
| Cc1ccc(C(=O)N2CCC(c3ccc(NC(=O)C4CN(c5cccnc5C)C4)cc3)CC2)s1 [Example 186, 1-(2-methylpyridin-3-yl)-N-(4-{1-[(5-methylthiophen-2-yl)carbonyl]piperidin-4-yl}phenyl)azetidine-3-carboxamide] | 627 nM |
